Patent US20020049151A1, “Therapeutic approaches to diseases by suppression of the NURR subfamily of nuclear transcription factors” (priority 2000, published 2002)

Experiments:
Assay type in all cases: cell-based, human
NOR1 mRNA = assay: Northern analysis of NOR1 mRNA in primary RA synoviocytes; details: 1 hour, TNFα 10 ng/mL, PGE2 10^-6 M, vs untreated
Method: The pathological importance of the NURR transcription factors in inflammatory joint disease was further examined by determining the ability of proinflammatory agonists to regulate NOR1 transcript levels in primary synoviocytes. (FIG. 14). Expression levels of NOR1 and NURR1 mRNA increased compared to the untreated synoviocytes upon treatment with TNFα.
Northern analysis of primary RA synoviocytes were untreated (lane 1) or treated for 1 hour with TNFα (lane 2), IL-1β (lane 3), and PGE2 (lane 4). TNFα and IL-1β were used at a concentration of 10 ng/mL and PGE2 was at a concentration of 10^-6 M.
(§1) Total RNA was isolated from cultured primary synoviocytes or synovial explants. RNA was quantitated by UV absorption and 10 μg of total RNA were electrophoresed on a standard northern gel and transferred to nylon membrane (BioRad, Richmond, Calif.). NURR1 and NUR77 cDNA probes (Murphy and Conneely, 1997), spanning the amino terminal region to avoid cross-hybridization, were radiolabeled to a high specific activity using [α-^32P] dCTP and a random primer labeling system (Promega, Madison, Wis.). Blots were exposed to film at −80° C. using intensifying screens and autoradiographic intensity was quantitated using an imaging densitometer.

synoviocytes = assay: Synoviocyte morphological transformation (fibroblast-like to stellate); details: primary PsA synoviocytes, untreated vs TNFα
NURR1 mRNA = assay: Northern blot of NURR1 mRNA in synovium explants; details: RA and PsA synovium explants; CRH 10^−8 M; IL-6 10 ng/ml
Method: To determine whether the NURR subfamily contribute to CRH signaling in a pathological context, freshly excised RA (FIG. 4A) and PsA synovium explants were incubated with CRH (10^−8 M) and examined for its ability to induce expression of NURR1 and NUR77 transcripts. […] Furthermore, analysis of synovium explants indicates higher endogenous and CRH-inducible NURR1 mRNA compared to NUR77 transcript levels.
In FIG. 4 total RNA was extracted and northern blot analysis was performed. Filters were hybridized with a cDNA for NURR1 or NUR77 and also with GAPDH to control for loading and transfer. Synovial explants were left untreated [C] or incubated with 10^−8M CRH for the indicated times. (FIG. 4A) Confluent monolayers of primary synoviocytes were left untreated [C] or pretreated with 10^−8M dexamethasone (DEX) for 2 h prior to the addition of 25μM forskolin (FOR) or 20 ng/ml of phorbal myristic acetate (PMA). (FIG. 4B)
For FIG. 6 each membrane was reprobed with a GAPDH cDNA to control for loading and transfer. NURR1 mRNA levels were measured by northern analysis using total RNA extracted from synoviocytes left untreated [C] or cultured for the time indicated with (A) TNFα (10 ng/ml) in the presence or absence of pre-treatment with 10^−8M dexamethasone (DEX). (B) IL-1β(10 ng/ml) in the presence or absence of pretreatment with 2 μM indomethacin (INDO) or 10^−8M DEX. (C) or synovial explants cultured with IL-6 (10 ng/ml). (D) 1 μM PGE2. (E) 25 μM forskolin (FOR) or […] for 1h in the absence or presence of 5 µg/ml cycloheximide (CHX).
as §1

Molecule | NOR1 mRNA expression levels (NOR1 mRNA) | synoviocyte morphology after stimulation (synoviocytes) | NURR1 mRNA induction in synovium explants (NURR1 mRNA)
TNFα | increased | stellate shape | 
IL-6: pro-inflammatory cytokine |  |  | rapid and marked increase
CCCCC[C@H](O)/C=C/[C@H]1[C@H](O)CC(=O)[C@@H]1C/C=C\CCCC(=O)O [PGE2, reference compound] | only a moderate increase |  | 
